Measured values as given in patent US8334403B1, “C-lysine conjugates as pH-controlled, light-activated reagents for double stranded DNA cleavage and associated methods” (Florida State University Research Foundation, Inc., priority 2005, dated 2012).
Values joined by “and” are separate entries in the source; they are usually repeats but may differ in a detail not shown here. Equal entries are not always repeated.

What was measured:
[1] = system: pBR322 plasmid DNA; assay: Plasmid relaxation assay: DNA photocleavage of supercoiled plasmid under UV irradiation; assay type: biochemical
Procedure: General information. ^1H, ^13C and ^19F NMR were collected on a Varian Gemini 300 MHz NMR spectrometer and a Bruker 300 MHz NMR spectrometer. Mass spectrometry data was collected on a Jeol JMS-600H. UV spectra were recorded on a Shimadzu UV-2100. Fluorescence spectra were obtained with SPEX FluoMax spectrofluorimeter using right-angle geometry. pH was adjusted with AB 15 plus pH meter (Accument) after standardization at 25° C. All buffers were prepared and pH-adjusted at room temperature (25° C.). Plasmid DNA Photocleavage. pBR322 plasmid DNA (4,361 b/p; from BioLabs Inc., 1 μg/μL solution in 10 mM Tris-HCl (pH 8.0), and 1 mM EDTA buffer) was diluted to a concentration of 0.01 μg/μL. The solution containing cleavage agent, DNA (30 μM/bp) in 20 mM sodium phosphate buffer was incubated for 1 hour at 30° C. Samples were placed on ice at a distance of 20 cm from 200 W Hg—Xe lamp (Spectra-Physics, Laser & Photonics Oriel Instruments with long pass filter with 324 nm cut-off wavelength). Electrophoretic Analysis. The gel electrophoresis was carried out in 1×TBE buffer at 80 V using Miligel FisherBiotech Horizontal Electrophoresis System. All gels were run on 1% agarose slab gels. Before loading, the DNA samples were mixed with 0.33 volume of tracking dye containing bromophenol blue (0.25%) and glycerol (30%) in water. After staining in ethidium bromide solution (2 μg/ml) for 1 hour, the gel was washed with water and pictures were taken with Polaroid 3000ISO type 667 film. The relative quantities of the supercoiled, nicked, and linear DNA were calculated by integrating the “area” of each spot by the image analyzer software Total/Lab (Nonlinear Dynamics Ltd., UK). The amount of supercoiled DNA was multiplied by factor of 1.4 to account for reduced ethidium bromide intercalation into supercoiled DNA. pH titration by ^1H-NMR. pH* of compound 8 (3 mM) solution in D2O containing 0.05 wt % 3-(trimethylsilyl)propionic-2,2,3,3-d4 acid, sodium salt (TSP-d4) was adjusted with 10 wt % DCI and NaOD in D2O at 25° C. under argon purged condition. Spectrometric determinations of pKa. pH of 10 μM of compound solution in H2O was adjusted with 10, 100 mM HCl (aq) and NaOH (aq) solution under argon purged condition. Excitation wavelength was 330 nm and polymethacrylate fluorimeter cuvettes were used. Absorbance and fluorescence titration with DNA. The concentrations of calf thymus DNA stock solution was determined spectophotometrically using the following molar absorptovity values: 1.32×10^4 M^−1 cm^−1 (per base pair) at 260 nm. All experiments were done in 20 mM sodium phosphate buffer at 25° C. and polymethacrylate fluorimeter cuvettes were used. The same amount of DNA was added to both sample and reference cuvettes during UV/Vis titration. Determination of excited state lifetimes. The concentration of compound solution was 10 μM in 20 mM sodium phosphate buffer. The photoluminescence lifetime measurements were conducted by exciting the samples with the output of a Nd:VO—4 (Spectra-Physics Vanguard, 2 W, 532 nm, 76 MHz, 10 ps) pumped R6G dye laser (Coherent 702-1). The output of the dye laser (600 nm, Rhodamine 6G) was cavity dumped at 1.9 MHz and frequency doubled using a BBO crystal to excite the fluorophore (the excitation wavelength used was 290 nm). Samples were excited with <1 mW power and the emission was collected at right angles onto a Chromex S3 500 is 0.5 m imaging monochromator with a 50 g/mm grating and 0.5 nm resolution. Output of the monochromator is focused into a Hamamatsu C5680 streak camera operating at a 20 ns window for the fluorophore. Intensity analysis was carried out by integrating the spectral profile in time on the streak camera. Lifetime analysis over 6-7 lifetimes of the fluorophore was conducted by binning the photoluminescence intensity collected on the streak camera over a 20 nm spectral window at the centroid value of the emission of the fluorophore. Ethidium bromide displacement. […]

[2] = Fluorometric (emission) determination of pKa; assay type: physicochemical
Procedure: General information. ^1H, ^13C and ^19F NMR were collected on a Varian Gemini 300 MHz NMR spectrometer and a Bruker 300 MHz NMR spectrometer. Mass spectrometry data was collected on a Jeol JMS-600H. UV spectra were recorded on a Shimadzu UV-2100. Fluorescence spectra were obtained with SPEX FluoMax spectrofluorimeter using right-angle geometry. pH was adjusted with AB 15 plus pH meter (Accument) after standardization at 25° C. All buffers were prepared and pH-adjusted at room temperature (25° C.). Plasmid DNA Photocleavage. pBR322 plasmid DNA (4,361 b/p; from BioLabs Inc., 1 μg/μL solution in 10 mM Tris-HCl (pH 8.0), and 1 mM EDTA buffer) was diluted to a concentration of 0.01 μg/μL. The solution containing cleavage agent, DNA (30 μM/bp) in 20 mM sodium phosphate buffer was incubated for 1 hour at 30° C. Samples were placed on ice at a distance of 20 cm from 200 W Hg—Xe lamp (Spectra-Physics, Laser & Photonics Oriel Instruments with long pass filter with 324 nm cut-off wavelength). Electrophoretic Analysis. The gel electrophoresis was carried out in 1×TBE buffer at 80 V using Miligel FisherBiotech Horizontal Electrophoresis System. All gels were run on 1% agarose slab gels. Before loading, the DNA samples were mixed with 0.33 volume of tracking dye containing bromophenol blue (0.25%) and glycerol (30%) in water. After staining in ethidium bromide solution (2 μg/ml) for 1 hour, the gel was washed with water and pictures were taken with Polaroid 3000ISO type 667 film. The relative quantities of the supercoiled, nicked, and linear DNA were calculated by integrating the “area” of each spot by the image analyzer software Total/Lab (Nonlinear Dynamics Ltd., UK). The amount of supercoiled DNA was multiplied by factor of 1.4 to account for reduced ethidium bromide intercalation into supercoiled DNA. pH titration by ^1H-NMR. pH* of compound 8 (3 mM) solution in D2O containing 0.05 wt % 3-(trimethylsilyl)propionic-2,2,3,3-d4 acid, sodium salt (TSP-d4) was adjusted with 10 wt % DCI and NaOD in D2O at 25° C. under argon purged condition. Spectrometric determinations of pKa. pH of 10 μM of compound solution in H2O was adjusted with 10, 100 mM HCl (aq) and NaOH (aq) solution under argon purged condition. Excitation wavelength was 330 nm and polymethacrylate fluorimeter cuvettes were used. Absorbance and fluorescence titration with DNA. The concentrations of calf thymus DNA stock solution was determined spectophotometrically using the following molar absorptovity values: 1.32×10^4 M^−1 cm^−1 (per base pair) at 260 nm. All experiments were done in 20 mM sodium phosphate buffer at 25° C. and polymethacrylate fluorimeter cuvettes were used. The same amount of DNA was added to both sample and reference cuvettes during UV/Vis titration. Determination of excited state lifetimes. The concentration of compound solution was 10 μM in 20 mM sodium phosphate buffer. The photoluminescence lifetime measurements were conducted by exciting the samples with the output of a Nd:VO—4 (Spectra-Physics Vanguard, 2 W, 532 nm, 76 MHz, 10 ps) pumped R6G dye laser (Coherent 702-1). The output of the dye laser (600 nm, Rhodamine 6G) was cavity dumped at 1.9 MHz and frequency doubled using a BBO crystal to excite the fluorophore (the excitation wavelength used was 290 nm). Samples were excited with <1 mW power and the emission was collected at right angles onto a Chromex S3 500 is 0.5 m imaging monochromator with a 50 g/mm grating and 0.5 nm resolution. […]

## Cl.Cl.NCCCC[C@H](N)C(=O)Nc1ccc(C#Cc2c(F)c(F)nc(F)c2F)cc1 [Compound 4, (S)-2,6-Diamino-hexanoic acid [4-(2,3,5,6-tetrafluoro-pyridin-4-ylethynyl)-phenyl]-amide dihydrochloride]
[1]; higher concentrations of 4
  ds cleavage: ≤ 50%
[1]; pH 5.5, 10 μM
  decrease of total DNA cleavage activity on increasing phosphate buffer from 10 mM to 50 mM: 48%
[1]; pH 6, 10 μM
  irradiation time until plasmid DNA is completely consumed: ≤ 5 min
[1]; pH 6, 10 mM scavenger, 5 min irradiation
  protection of DNA from damage by hydroxyl radical/singlet oxygen scavengers: neither of the additives is able to protect DNA
[1]; pH 6, 3 minutes of irradiation, 15 μM, 30 μM/bp DNA
  intact DNA (Form I) remained: 16%
[1]; pH 7, 10 μM
  decrease of total DNA cleavage activity on increasing phosphate buffer from 10 mM to 50 mM: 40%
[1]; pH 7, 3 minutes of irradiation, 15 μM, 30 μM/bp DNA
  unreacted DNA (Form I): 60%
[1]; pH 8, 10 μM
  decrease of total DNA cleavage activity on increasing phosphate buffer from 10 mM to 50 mM: 34%
[1]; pH 8, 3 minutes of irradiation, 15 μM, 30 μM/bp DNA
  unreacted DNA (Form I): 86%
[1]; pH 8, after an hour of irradiation, 10 μM
  DNA remains unreacted: ~60%
[2]; difference to compound 6
  α-pKa lower than the pKa for alanine conjugate 6: ~0.5 units
[2]; difference to compound 8
  decrease in the basicity of the α-amino group relative to phenyl conjugate 8: 0.5-0.6 pKa units
[2]; emission, α-amino group (4, 6), ε-amino group (7), dihydrochloride
  pKa1: 7.0 and 6.98
